Converted amounts (≈) assume the structure as drawn. Structures can show the parent of a compound that is named as a salt.
Assays:
[1] = tested on: S. aureus strain ATCC13709; assay: Antibacterial susceptibility (MIC) in CAMHB; format: cell-based; conditions: for Minimum inhibitory concentration, CAMHB: S. aureus ATCC 13709, cation adjusted Mueller-Hinton broth, 37° C., 18 h; for MIC: Staphylococcus aureus, ATCC13709, 18 h, read-out: Minimum inhibitory concentration, CAMHB
Protocol: (§1) Susceptibility of S. aureus strain ATCC13709 to the commercial antibiotics and synthesized compounds was determined by following the guidelines set by the Clinical and Laboratory Standards Institute (formerly the National Committee for Clinical Laboratory Standards) (M26-A). Compounds were diluted two-fold serially in either DMSO (Vancomycin 4, Oritavancin 8, compounds 10, 31, 33, 39, 44, 50, 60, 65), DMF (compounds 18 and 21) or in PBS (compound 6) and transferred to cation-adjusted Mueller Hinton broth (CAMHB; Becton Dickinson). 50 μL of compounds diluted in CAMHB was mixed with […] of bacteria diluted in CAMHB in 96-well microtiter plates. The final number of micro-organisms in the assay was 5×10^5 c.f.u. per mL and the final concentration of DMSO or DMF in the assay, if present, was 1.25%. Assays were set up in duplicate and incubated at 37° C. for 18 h. The concentration of compound that inhibited visible growth was reported as the minimum inhibitory concentration (MIC).

[2] = tested on: S. aureus strain ATCC13709; assay: Antibacterial susceptibility (MIC) in the presence of 50% serum; format: cell-based; conditions: for Minimum inhibitory concentration, CAMHB + 50% Human Serum / Minimum inhibitory concentration, CAMHB + 50% Mouse Serum / Minimum inhibitory concentration, CAMHB + 50% Rat Serum: S. aureus ATCC 13709; for MIC: Staphylococcus aureus
Protocol: as §1
Susceptibility testing experiments were also carried out in the presence of serum. These experiments were carried out similar to the susceptibility testing with the following modifications. 75 μL of compounds diluted in CAMHB was mixed with 75 μL of bacteria diluted in 100% serum from any given source (commercial pooled mouse serum (MS) and human serum (HS), Equitech-Bio Inc.). The final concentration of animal serum in the assay was 50% and the concentrations of all other components were identical to those described for susceptibility testing.

[3] = Regeneration of parent drug from bone powder-bound prodrug; format: in vitro ADME; conditions: 24 h incubation, 37° C.
Protocol: Amounts of parent drug “regenerated” from the phosphonated prodrug were measured as follows. Washed bone powder-bound prodrugs from the above experiment were resuspended in 400 μL PBS+2% DMSO or in 400 μL 50% (v/v in PBS+2% DMSO) human or rat serum. The suspension was incubated overnight at 37° C., centrifuged at 13,000 rpm for 2 min and the supernatant was recovered. The amount of regenerated parent drug in the supernatant was determined by measurements using the microbiological assays that were previously described for the prodrugs themselves. The amount of released drug from prodrug was deduced from standard curves of known amounts of parent drug that were used as reference for each experiment. The amount of regenerated drug assessed by this bioassay was corroborated by MIC determination. The percentage of drug regenerated in PBS or serum after the overnight incubation (Table 2) was deduced from the difference between the amount of bound prodrug and the amount of regenerated drug (not shown).

[4] = ATCC13709, read-out: Minimum inhibitory concentration, CAMHB + 50% Human Serum
[5] = ATCC13709, read-out: Minimum inhibitory concentration, CAMHB + 50% Mouse Serum
[6] = ATCC13709, read-out: Minimum inhibitory concentration, CAMHB + 50% Rat Serum

CNC(CC(C)C)C(=O)NC1C(=O)NC(CC(N)=O)C(=O)NC2C(=O)NC3C(=O)NC(C(=O)NC(C(=O)OCC(=O)NC(P(=O)(O)O)P(=O)(O)O)c4cc(O)cc(O)c4-c4cc3ccc4O)C(O)c3ccc(c(Cl)c3)Oc3cc2cc(c3OC2OC(CO)C(O)C(O)C2OC2CC(C)(N)C(O)C(C)O2)Oc2ccc(cc2Cl)C1O (centres unmarked) [Compound 18]
Minimum inhibitory concentration, CAMHB [1]: 16 µg/mL (≈ 9.52 µM)
Minimum inhibitory concentration, CAMHB + 50% Human Serum [2]: 8 µg/mL
Minimum inhibitory concentration, CAMHB + 50% Mouse Serum [2]: 16 µg/mL
Minimum inhibitory concentration, CAMHB + 50% Rat Serum [2]: 32 µg/mL
% Conversion (prodrug converted to parent drug) ([3]; 50% human serum): 2.34%
% Conversion (prodrug converted to parent drug) ([3]; 50% rat serum): 2.58%
% Conversion (prodrug converted to parent drug) ([3]; PBS): 2.09%

CNC(CC(C)C)C(=O)NC1C(=O)NC(CC(N)=O)C(=O)NC2C(=O)NC3C(=O)NC(C(=O)NC(C(=O)OCC(=O)Nc4ccc(CC(P(=O)(O)O)P(=O)(O)O)cc4)c4cc(O)cc(O)c4-c4cc3ccc4O)C(O)c3ccc(c(Cl)c3)Oc3cc2cc(c3OC2OC(CO)C(O)C(O)C2OC2CC(C)(N)C(O)C(C)O2)Oc2ccc(cc2Cl)C1O (centres unmarked) [Compound 21]
Minimum inhibitory concentration, CAMHB [1]: 16 µg/mL (≈ 9.04 µM)
Minimum inhibitory concentration, CAMHB + 50% Human Serum [2]: 16 µg/mL
Minimum inhibitory concentration, CAMHB + 50% Mouse Serum [2]: 16 µg/mL
Minimum inhibitory concentration, CAMHB + 50% Rat Serum [2]: 32 µg/mL
% Conversion (prodrug converted to parent drug) ([3]; 50% human serum): 3.5%
% Conversion (prodrug converted to parent drug) ([3]; 50% rat serum): 4.1%
% Conversion (prodrug converted to parent drug) ([3]; PBS): 3.5%

CC(C)C[C@H](C(=O)N[C@H]1C(=O)N[C@@H](CC(N)=O)C(=O)N[C@H]2C(=O)N[C@H]3C(=O)N[C@H](C(=O)N[C@H](C(=O)O)c4cc(O)cc(O)c4-c4cc3ccc4O)[C@H](O[C@H]3C[C@](C)(N)[C@@H](O)[C@H](C)O3)c3ccc(c(Cl)c3)Oc3cc2cc(c3O[C@@H]2O[C@H](CO)[C@@H](O)[C@H](O)[C@H]2O[C@H]2C[C@](C)(NCc3ccc(-c4ccc(Cl)cc4)cc3)[C@@H](O)[C@H](C)O2)Oc2ccc(cc2Cl)[C@H]1O)N(C)C(=O)CCC(P(=O)(O)O)P(=O)(O)O [Compound 39]
Minimum inhibitory concentration, CAMHB [1]: >32 µg/mL
Minimum inhibitory concentration, CAMHB + 50% Human Serum [2]: >32 µg/mL
Minimum inhibitory concentration, CAMHB + 50% Mouse Serum [2]: >32 µg/mL
Minimum inhibitory concentration, CAMHB + 50% Rat Serum [2]: >32 µg/mL
% Conversion (prodrug converted to parent drug) ([3]; 50% rat serum): 0.9%
% Conversion (prodrug converted to parent drug) ([3]; PBS): 0.01%

CC(C)C[C@H](C(=O)N[C@H]1C(=O)N[C@@H](CC(N)=O)C(=O)N[C@H]2C(=O)N[C@H]3C(=O)N[C@H](C(=O)N[C@H](C(=O)O)c4cc(O)cc(O)c4-c4cc3ccc4O)[C@H](O[C@H]3C[C@](C)(N)[C@@H](O)[C@H](C)O3)c3ccc(c(Cl)c3)Oc3cc2cc(c3O[C@@H]2O[C@H](CO)[C@@H](O)[C@H](O)[C@H]2O[C@H]2C[C@](C)(NCc3ccc(-c4ccc(Cl)cc4)cc3)[C@@H](O)[C@H](C)O2)Oc2ccc(cc2Cl)[C@H]1O)N(C)C(=O)CCCOC(=O)CC(P(=O)(O)O)P(=O)(O)O [Compound 50]
Minimum inhibitory concentration, CAMHB [1]: 32 µg/mL (≈ 15.3 µM)
Minimum inhibitory concentration, CAMHB + 50% Human Serum [2]: >32 µg/mL
Minimum inhibitory concentration, CAMHB + 50% Mouse Serum [2]: 32 µg/mL
Minimum inhibitory concentration, CAMHB + 50% Rat Serum [2]: >32 µg/mL

CC(C)C[C@H](C(=O)N[C@H]1C(=O)N[C@@H](CC(N)=O)C(=O)N[C@H]2C(=O)N[C@H]3C(=O)N[C@H](C(=O)N[C@H](C(=O)O)c4cc(O)cc(O)c4-c4cc3ccc4O)[C@H](O[C@H]3C[C@](C)(N)[C@@H](O)[C@H](C)O3)c3ccc(c(Cl)c3)Oc3cc2cc(c3O[C@@H]2O[C@H](CO)[C@@H](O)[C@H](O)[C@H]2O[C@H]2C[C@](C)(NCc3ccc(-c4ccc(Cl)cc4)cc3)[C@@H](O)[C@H](C)O2)Oc2ccc(cc2Cl)[C@H]1O)N(C)C(=O)OCOC(=O)CCCC(P(=O)(O)O)P(=O)(O)O [Compound 60]
Minimum inhibitory concentration, CAMHB [1]: 32 µg/mL (≈ 15.2 µM)
Minimum inhibitory concentration, CAMHB + 50% Human Serum [2]: >32 µg/mL
Minimum inhibitory concentration, CAMHB + 50% Mouse Serum [2]: 32 µg/mL
Minimum inhibitory concentration, CAMHB + 50% Rat Serum [2]: 32 µg/mL
% Conversion (prodrug converted to parent drug) ([3]; 50% rat serum): 0.05%
% Conversion (prodrug converted to parent drug) ([3]; PBS): <LOD

CC(C)C[C@H](C(=O)N[C@H]1C(=O)N[C@@H](CC(N)=O)C(=O)N[C@H]2C(=O)N[C@H]3C(=O)N[C@H](C(=O)N[C@H](C(=O)O)c4cc(O)cc(O)c4-c4cc3ccc4O)[C@H](O[C@H]3C[C@](C)(N)[C@@H](O)[C@H](C)O3)c3ccc(c(Cl)c3)Oc3cc2cc(c3O[C@@H]2O[C@H](CO)[C@@H](O)[C@H](O)[C@H]2O[C@H]2C[C@](C)(NCc3ccc(-c4ccc(Cl)cc4)cc3)[C@@H](O)[C@H](C)O2)Oc2ccc(cc2Cl)[C@H]1O)N(C)C(=O)OCOC(=O)CCC(P(=O)(O)O)P(=O)(O)O.O=C(O)C(F)(F)F.O=C(O)C(F)(F)F [Compound 65]
Minimum inhibitory concentration, CAMHB [1]: 8 µg/mL
Minimum inhibitory concentration, CAMHB + 50% Human Serum [2]: 4 µg/mL
Minimum inhibitory concentration, CAMHB + 50% Mouse Serum [2]: 0.5 µg/mL
Minimum inhibitory concentration, CAMHB + 50% Rat Serum [2]: 1 µg/mL
% Conversion (prodrug converted to parent drug) ([3]; 50% rat serum): 26.4%
% Conversion (prodrug converted to parent drug) ([3]; PBS): 0.2%

CN[C@H](CC(C)C)C(=O)N[C@H]1C(=O)N[C@@H](CC(N)=O)C(=O)N[C@H]2C(=O)N[C@H]3C(=O)N[C@H](C(=O)N[C@H](C(=O)O)c4cc(O)cc(O)c4-c4cc3ccc4O)[C@H](O[C@H]3C[C@](C)(N)[C@@H](O)[C@H](C)O3)c3ccc(c(Cl)c3)Oc3cc2cc(c3O[C@@H]2O[C@H](CO)[C@@H](O)[C@H](O)[C@H]2O[C@H]2C[C@](C)(NCc3ccc(-c4ccc(Cl)cc4)cc3)[C@@H](O)[C@H](C)O2)Oc2ccc(cc2Cl)[C@H]1O [Oritavancin (8), oritavancin bisphosphoric acid salt, reference compound]
MIC [1]: 0.5 µg/mL
MIC [2, 4]: 1 µg/mL
MIC [2, 5]: 2 µg/mL
MIC [2, 6]: 0.25 µg/mL

CN[C@H](CC(C)C)C(=O)N[C@H]1C(=O)N[C@@H](CC(N)=O)C(=O)N[C@H]2C(=O)N[C@H]3C(=O)N[C@H](C(=O)N[C@H](C(=O)O)c4cc(O)cc(O)c4-c4cc3ccc4O)[C@H](O)c3ccc(c(Cl)c3)Oc3cc2cc(c3O[C@@H]2O[C@H](CO)[C@@H](O)[C@H](O)[C@H]2O[C@H]2C[C@](C)(N)[C@H](O)[C@H](C)O2)Oc2ccc(cc2Cl)[C@H]1O [Vancomycin (4), vancomycin hydrochloride, reference compound]
MIC [1]: 1 µg/mL
MIC [2, 4]: 1 µg/mL
MIC [2, 5]: 2 µg/mL
MIC [2, 6]: 2 µg/mL

From US8946144B2, “Phosphonated glycopeptide and lipoglycopeptide antibiotics and uses thereof for the prevention and treatment of bone and joint infections” (The Medicines Company, priority 2006, dated 2015)
